From the NIST ThermoML archive (doi:10.1021/je060354r)
Numbers after ± are expanded uncertainties.

Test: Boiling temperature at pressure P
Details: 100 kPa; Liquid; Ebulliometric method (Recirculating still)

Boiling temperature at pressure P: 81.86 ± 0.22 °C
SMILES: CC(C)O [propan-2-ol]
